Measurements from US20240400562A1, “COMPOUNDS AND COMPOSITIONS FOR TREATING CONDITIONS ASSOCIATED WITH LPA RECEPTOR ACTIVITY” (LHOTSE, BIO, INC., priority 2021, published 2024).
Values belong to the compound of their own block, whether it stands above or below them.

Assays:
human LPA1 = target: T1, human LPA1 (Homo sapiens, UniProt Q92633); assay: In vitro LPA1 calcium flux antagonist assay; assay type: cell-based; settings: CHO-K1 cells overexpressing human LPA1 and G15a, LPA challenge at EC80, FLIPR calcium mobilization
T1 construct: expressed in transfected cells; host or cells: CHO-K1
T1 sequence (Q92633 whole entry): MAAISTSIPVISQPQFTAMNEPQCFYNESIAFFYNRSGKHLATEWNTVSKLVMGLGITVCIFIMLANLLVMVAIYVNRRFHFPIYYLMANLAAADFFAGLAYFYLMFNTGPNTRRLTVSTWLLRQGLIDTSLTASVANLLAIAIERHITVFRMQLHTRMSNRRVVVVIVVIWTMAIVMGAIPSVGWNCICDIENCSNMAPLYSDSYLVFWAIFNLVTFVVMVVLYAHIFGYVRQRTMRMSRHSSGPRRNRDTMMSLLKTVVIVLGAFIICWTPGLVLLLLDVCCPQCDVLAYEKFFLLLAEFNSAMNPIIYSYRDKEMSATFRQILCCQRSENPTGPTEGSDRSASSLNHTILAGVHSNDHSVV
Experimental: CHO-K1 cells overexpressing human LPA1 and G15a were seeded at a total volume of 20 μL (15000 cells/well) into Matrigel pre-coated 384-well plates (corning −3764) and incubated at 37° C. After overnight incubation, the cells were serum starved for 4 h. Assays were performed in dye loading buffer containing 1×Fluo-8 AM (AAT Bioquest, 21080) and 2.5 mM probenecid (Thermo Fisher, 36400) in HBSS/20 mM Hepes. After cell starvation, the medium was replaced with 20 μL of dye loading buffer and incubated at 37° C. for 30 min. Then 5 μL of 5× compound titrated in dye loading buffer was added to the cells and incubated for 30 min followed by LPA challenge at EC80. Calcium mobilization was measured on a FLIPR Tetra (MDS). For LPA EC80 determination, starved cells were incubated with 20 μL of dye loading buffer for 1 h, then 5 μL of 5×LPA titrated in dye loading buffer was added to the cells. Calcium signals induced by LPA was monitors on a FLIPR.
Percentage inhibition is calculated using the following formula: […]

[1] = Pharmacokinetics measurements in rats; assay type: in vivo; settings: SD male rats, plasma; for Cl_obs / AUC(0-t) / Cmax / Tmax: mean; for bioavailability / AUC(0-t) / Cmax / Tmax: rat; for bioavailability: PO 5 mg/kg vs IV 1 mg/kg
Experimental: The PK properties of selected compounds were measured in SD Male rats following single oral (5 mg/kg) and Intravenous Administration (1 mg/kg).
Compounds 103 and 104 were prepared in a 1 mg/mL solution of 10% Solutol HS15 and 90% saline for oral administrations at 5 mL/kg and 0.2 mg/mL solution of 10% Solutol HS15 and 90% saline for intravenous administrations at 1 mL/kg, respectively, and administered to 3 rats per group. After dosing, blood collection was performed by Jugular vein sampling (by cannula) at 0.25, 0.5, 1, 2, 4, 6, 8, 24 h, and 0.083, 0.25, 0.5, 1, 2, 4, 8, 24 h, respectively, followed by centrifugation to obtain plasma. Samples were stored frozen at −80° C. prior to compound extraction and LC-MS/MS analysis. Pharmacokinetic parameters of compounds 103 and 104 in rats were calculated by standard noncompartmental modeling from the systemic plasma concentration-time profile.

[2] = Pharmacokinetics measurements in mice; assay type: in vivo; settings: mouse; CD1 female mice, single oral 5 mg/kg, plasma, mean
Experimental: The PK properties of selected compounds were measured in CD1 female mice following single oral (5 mg/kg) administration.
Compounds 103 and 104 were prepared in a 1 mg/mL solution of 10% Solutol HS15 and 90%, saline for oral administrations at 5 mL/kg, respectively, and administered to 3 mice/3 groups. After dosing, blood collection was performed by dorsal metatarsal vein sampling at 0.25, 0.5, 1, 2, 4, 6, 8, 24 h, followed by centrifugation to obtain plasma. Samples were stored frozen at −80° C. prior to compound extraction and LC-MS/MS analysis. Pharmacokinetic parameters of compounds 103 and 104 in mice were calculated by standard noncompartmental modeling from the systemic plasma concentration-time profile.

Structure (SMILES): COc1cc([C@@H](O)[C@H](Cc2nc3c(C(=O)O)ccc(OC)c3s2)OC2CCCC2)cc(OC)c1C [Compound 107, 2-((2S,3R)-2-(cyclopentyloxy)-3-(3,5-dimethoxy-4-methylphenyl)-3-hydroxypropyl)-7-methoxybenzo[d]thiazole-4-carboxylic acid]
IC50 (human LPA1): < 10 nM

Structure (SMILES): CCOc1ccc(C(=O)O)c2nc(C[C@H](OC3CCCC3)[C@H](O)c3cc(OC)c(C)c(OC)c3)sc12 [Compound 109]
IC50 (human LPA1): < 10 nM

Structure (SMILES): COc1cc(C(=O)O)c2nc(C[C@H](OC3CCCC3)[C@H](O)c3ccc(C(F)F)c(OC)c3)sc2c1 [Compound 102, 2-((2S,3R)-2-(cyclopentyloxy)-3-(4-(difluoromethyl)-3-methoxyphenyl)-3-hydroxypropyl)-6-methoxybenzo[d]thiazole-4-carboxylic acid]
IC50 (human LPA1): < 10 nM

Structure (SMILES): CNc1ccc(C(=O)O)n2nc(C[C@H](OC3CCCC3)[C@H](O)c3cc(OC)c(C)c(OC)c3)cc12 [Compound 108, 2-((2S,3R)-2-(cyclopentyloxy)-3-(3,5-dimethoxy-4-methylphenyl)-3-hydroxypropyl)-4-(methylamino)pyrazolo[1,5-a]pyridine-7-carboxylic acid]
IC50 (human LPA1): 10 to 100 nM

Structure (SMILES): COc1cc([C@@H](O)[C@H](Cc2nc3c(C(=O)O)cc(N(C)C)cc3s2)OC2CCCC2)cc(OC)c1C [Compound 106, 2-((2S,3R)-2-(cyclopentyloxy)-3-(3,5-dimethoxy-4-methylphenyl)-3-hydroxypropyl)-6-(dimethylamino)benzo[d]thiazole-4-carboxylic acid]
IC50 (human LPA1): < 10 nM

Structure (SMILES): CCOc1cc(C(=O)O)c2nc(C[C@H](OC3CCCC3)[C@H](O)c3ccc(C)c(OC)c3)sc2c1 [Compound 101, 2-((2S,3R)-2-(cyclopentyloxy)-3-hydroxy-3-(3-methoxy-4-methylphenyl)propyl)-6-ethoxybenzo[d]thiazole-4-carboxylic acid]
IC50 (human LPA1): < 10 nM

Structure (SMILES): COCc1cc(C(=O)O)c2nc(C[C@H](OC3CCCC3)[C@H](O)c3cc(OC)c(C)c(OC)c3)sc2c1 [Compound 104, 2-((2S,3R)-2-(cyclopentyloxy)-3-(3,5-dimethoxy-4-methylphenyl)-3-hydroxypropyl)-6-(methoxymethyl)benzo[d]thiazole-4-carboxylic acid]
IC50 (human LPA1): < 10 nM
Cl_obs ([1]; IV 1 mg/kg): 8.8 mL/min/kg
bioavailability [1]: 30.3%
AUC(0-t) ([1]; IV 1 mg/kg): 1900 ng·h/mL
AUC(0-t) ([1]; PO 5 mg/kg): 2890 ng·h/mL
Cmax ([1]; PO 5 mg/kg): 1520 ng/mL
Tmax ([1]; PO 5 mg/kg): 15 min
AUC(0-t) [2]: 6950 ng·h/mL
Cmax [2]: 3840 ng/mL
Tmax [2]: 15 min

Structure (SMILES): COc1cc([C@@H](O)[C@H](Cc2nc3c(C(=O)O)cc(CO)cc3s2)OC2CCCC2)cc(OC)c1C [Compound 103, 2-((2S,3R)-2-(cyclopentyloxy)-3-(3,5-dimethoxy-4-methylphenyl)-3-hydroxypropyl)-6-(hydroxymethyl)benzo[d]thiazole-4-carboxylic acid]
IC50 (human LPA1): 10 to 100 nM
Cl_obs ([1]; IV 1 mg/kg): 12.9 mL/min/kg
bioavailability [1]: 27.3%
AUC(0-t) ([1]; IV 1 mg/kg): 1330 ng·h/mL
AUC(0-t) ([1]; PO 5 mg/kg): 1790 ng·h/mL
Cmax ([1]; PO 5 mg/kg): 1490 ng/mL
Tmax ([1]; PO 5 mg/kg): 15 min
AUC(0-t) [2]: 1640 ng·h/mL
Cmax [2]: 463 ng/mL
Tmax [2]: 30 min

Structure (SMILES): CNc1cc(C(=O)O)c2nc(C[C@H](OC3CCCC3)[C@H](O)c3cc(OC)c(C)c(OC)c3)sc2c1 [Compound 105, 2-((2S,3R)-2-(cyclopentyloxy)-3-(3,5-dimethoxy-4-methylphenyl)-3-hydroxypropyl)-6-(methylamino)benzo[d]thiazole-4-carboxylic acid]
IC50 (human LPA1): < 10 nM

The remaining lines, values ahead:

IC50 (human LPA1): > 100 nM
Structure (SMILES): COc1cc([C@@H](O)[C@H](Cc2cc3c(N(C)C)ccc(C(=O)O)n3n2)OC2CCCC2)cc(OC)c1C [Compound 110]

IC50 (human LPA1): 10 to 100 nM
Structure (SMILES): CCOc1cc(C(=O)O)c2nc(C[C@H](OC3CCCC3)[C@H](O)c3cc(OC)cc(OC)c3)sc2c1 [Compound 111]

IC50 (human LPA1): 10 to 100 nM
Structure (SMILES): CCOc1ccc(C(=O)O)n2nc(C[C@H](OC3CCCC3)[C@H](O)c3cc(OC)c(C)c(OC)c3)cc12 [Compound 113]

IC50 (human LPA1): 10 to 100 nM
Structure (SMILES): CCCc1sc(C[C@H](OC2CCCC2)[C@H](O)c2cc(OC)c(C(C)=O)c(OC)c2)nc1C(C)C(=O)O (some centres unmarked) [Compound 114]

IC50 (human LPA1): 10 to 100 nM
Structure (SMILES): CCOc1cc(C(=O)O)c2nc(C[C@H](OC3CCCC3)[C@H](O)c3ccc(C(F)F)c(OC)c3)sc2c1 [Compound 112]
